How the values were obtained:
[1] = biological target: FKBPs with a single amino acid substitution: Phe36Val (Homo sapiens, UniProt P62942, F37V); conditions: cited from earlier work
[2] = test system: beta cells of the pancreas; experiment: in vivo beta cell ablation in Ins-Cre double transgenic mice (IPGTT, GTT); parameters: species or system mouse
Procedure: Diabetes is cause by loss of insulin producing beta cells in the pancreas. These cells cannot be replaced by known techniques. A model for impaired glucose tolerance was constructed by crossing the transgenic mouse (line B) described herein with an Ins-Cre mouse (Jackson Labs). […] This model has the characteristics of a pre-diabetic mouse.
The FK506 analogue AP20187 was administered by intraperitoneal (IP) injection. β-cell death was monitored in the animals by intraperitoneal glucose tolerance testing (IPGTT) using standard methodology.
The effect on blood glucose levels was also evaluated using a standard glucose tolerance test (GTT). 30 minutes after a glucose challenge, a blood sample was obtained from the tail vein and a measurement of blood glucose was obtained with a glucose monitor.

[3] = test system: cells co-transfected with Cre and dimerizable caspase-3 transgene; experiment: LIVE/DEAD analysis of co-transfected cells versus original pSHMFv2Caspase3E; assay type: cell-based; conditions: LIVE/DEAD analysis in the presence of AP20187
Description: To determine the extent of cell ablation, the co-transfected cells were compared with the original pSHMFv2Caspase3E in the presence of AP20187 using LIVE/DEAD analysis (Invitrogen). The number of dying cells and the decrease in cell viability was almost same in the co-transfected group as compared to the original plasmid transfection group (FIGS. 6B-6C).

[4] = test system: cells cotransfected with pCAN-Cre and pCMVflox (dimerizable caspase); experiment: MTT assay of cell viability after dimerizer treatment of transfected cells; assay type: cell-based; conditions: treated 24 hours after transfection, read 48 hours later; only in the group where both Cre-recombinase and transgene were transfected
Procedure: To confirm that the system works, the effect of the dimerizer, AP20187, was examined in vitro on cells that were transfected with either pCAN-Cre or pCMVflox, or cotransfected with both. 24 hours after transfection, cells were treated with the dimerizer AP20187, and 48 hours later cell-viability/dying cells were examined using a standard MTT (3-(4,5-dimethylthiazol-2-yl)-2,5-diphenyltetrazolium bromide) assay.

[5] = test system: inner and outer hair cells; experiment: organ of Corti explant culture of double transgenics in medium containing AP20187; assay type: cell-based, mouse; conditions: within 24 hours of incubation
[6] = test system: auditory hair cells; experiment: in vivo hair cell ablation and hearing loss in Brn3c-Cre double transgenic mice; parameters: species or system mouse
Description: Auditory hair cells are the mechanosensory channel that transduce sound waves to action potentials. Since mammalian hair cells cannot spontaneously regenerate once lost, regenerative medicine for hearing loss would be of great importance, and it has been difficult to establish a reproducible model for ablation of hair cells. The transgenic mice described herein (line D) were mated with a hair cell-specific, Brn3c-Cre mouse from Doug Vetter (Xiang et al., Proc. Natl. Acad. Sci. U.S.A. 94(17):9445-50 (1997); Sage et al., Proc. Nat. Acad. Sci. 103(19):7345-7350 (2006)).
In vivo experiments were also performed. Animals at 6-8 weeks of age were administered AP20187 (10 mg/kg ip) and analyzed six days later. […] Approximately 35˜40% of inner hair cells and 15% of outer hair cells were lost, as judged by Pv3 staining.

[7] = biological target: native FKBPs (Homo sapiens, UniProt P62942); conditions: cited from earlier work
Chain of native FKBPs (P62942 whole entry): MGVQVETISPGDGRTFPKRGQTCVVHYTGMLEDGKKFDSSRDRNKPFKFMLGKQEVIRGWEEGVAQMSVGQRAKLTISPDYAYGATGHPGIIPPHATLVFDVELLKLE

[8] = test system: Rosa26-CreER (Cre recombinase); experiment: tamoxifen-induced Cre recombination in cells from Rosa26-CreER double transgenic mice; assay type: cell-based, mouse; conditions: cells from line F x Rosa26-CreER double transgenic mice, in the presence of tamoxifen
Description: To provide a model for ready confirmation of the function of the conditional-stop dimerizable caspase transgene, the transgenic mice described herein (line F) were crossed with Rosa26-CreER mice. In vitro experiments on cells from the mice were contacted with tamoxifen to induce expression of the Cre recombinase, and the results, shown in FIG. 13, indicate successful recombination and expression of the transgene.

[9] = 10 mg/kg ip, six days later, treated animals
[10] = immunohistochemistry after AP20187 administration

Chain of FKBPs with a single amino acid substitution: Phe36Val (P62942 2-108 F37V limits assumed): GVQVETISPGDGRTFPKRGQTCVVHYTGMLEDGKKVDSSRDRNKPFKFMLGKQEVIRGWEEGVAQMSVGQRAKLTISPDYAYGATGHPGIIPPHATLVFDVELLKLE

| SMILES | binding to FKBPs with Phe36Val substitution [1] | blood glucose levels in glucose tolerance test (GTT) ([2]; 30 minutes after a glucose challenge, tail vein blood) | glucose control by intraperitoneal glucose tolerance testing (IPGTT) ([2]; IP injection, Ins-Cre double transgenic animals, more pronounced in females than in males) | number of dying cells and decrease in cell viability, co-transfected group compared to original plasmid transfection group [3] | cell viability by MTT assay [4] | inner hair cell loss [5] [%] | outer hair cell loss [5] [%] | decrease in the amplitude of the auditory brainstem response (ABR) ([6]; 10 mg/kg ip, analyzed six days later, compared with same-animal measurements before treatment) [%] | inner hair cells lost after drug treatment ([6]; 10 mg/kg ip, six days later) [%] | ISO-DP (threshold required to obtain a given level of response) [6, 9] | distortion product otoacoustic emissions (DPOAE) [6, 9] | changes in the spiral ganglion [6, 10] | inner hair cells lost, as judged by Pv3 staining [6, 10] | outer hair cells lost, as judged by Pv3 staining [6, 10] [%] | binding to the native FKBPs [7] | recombination of the transgene (PCR product on gel) [8] |
| --- | --- | --- | --- | --- | --- | --- | --- | --- | --- | --- | --- | --- | --- | --- | --- | --- |
| CC[C@H](C(=O)N1CCCC[C@H]1C(=O)O[C@H](CCc1ccc(OC)c(OC)c1)c1cccc(OCC(=O)NCC(CNC(=O)COc2cccc([C@@H](CCc3ccc(OC)c(OC)c3)OC(=O)[C@@H]3CCCCN3C(=O)[C@@H](CC)c3cc(OC)c(OC)c(OC)c3)c2)CN(C)C)c1)c1cc(OC)c(OC)c(OC)c1 [AP20187] | bind with high affinity | significant increased | partial loss of glucose control | almost same | significantly reduced | 38.8 | 32.4 | 60 | 37.8 | significantly increased | significantly decreased | No remarkable changes | 35˜40% | ~15 | do not bind | – |
| CC/C(=C(\c1ccccc1)c1ccc(OCCN(C)C)cc1)c1ccccc1 [tamoxifen] | – | – | – | – | – | – | – | – | – | – | – | – | – | – | – | recombined product at 200 bp is present |

— patent publication US8921642B2, “Conditional-stop dimerizable caspase transgenic animals” (Massachusetts Eye and Ear Infirmary, priority 2008, dated 2014)
